Data published in patent US20120231015A1, “FRAGILE X MENTAL RETARDATION PROTEIN (FMRP), COMPOSITIONS, AND METHODS RELATED THERETO” (EMORY UNIVERSITY, priority 2009, published 2012).
Entries after “also recorded” stand apart in the source; their conditions may differ.

Legend:
[1] = test system: p110beta mRNA; test: p110beta mRNA in polysomal fractions of sucrose gradients, cortical SNS; format: cell-based, mouse
Experimental: Gradient preparation, centrifugation, fractionation, RNA purification, and qRT-PCRs were performed as described previously (Muddashetty et al., 2007).
(§1) Cortical SNS were prepared as described previously (Muddashetty et al., 2007) and treated with the indicated antagonists or solvent for 5 min at 37° C., […], and with puromycin (2 mM) for 30 min at 37° C. Metabolic labeling was performed with 100 μCi Pro-Mix, L-(35S) in vitro cell labeling mix (GE Healthcare) for 5 min. Triplicate samples from time point 0 and 5 min were washed once in homogenization buffer, followed by lysis (100 mM Tris-HCl, pH 7.4, 150 mM NaCl, 0.5% deoxycholate, and 1% Triton X-100, supplemented with proteinase inhibitors) and TCA precipitation. 35S-incorporation levels were estimated by scintillation counting.

[2] = test system: cortical SNS; test: Metabolic labeling of cortical SNS with [35S]methionine (synaptic translation rates); format: cell-based, mouse; settings: for translation rates (amino acid incorporation): antagonist 50 μM; for translation rates ([35S] incorporation in 5 min): antagonist 10 μM
Experimental: Cortical SNS were prepared as described previously (Muddashetty et al., 2007) and treated with the indicated antagonists or solvent for 5 min at 37° C., for some experiments followed by DHPG (100 μM) for 15 min at 37° C. as indicated, and with puromycin (2 mM) for 30 min at 37° C. Metabolic labeling was performed with 100 μCi Pro-Mix, L-(35S) in vitro cell labeling mix (GE Healthcare) for 5 min. Triplicate samples from time point 0 and 5 min were washed once in homogenization buffer, followed by lysis (100 mM Tris-HCl, pH 7.4, 150 mM NaCl, 0.5% deoxycholate, and 1% Triton X-100, supplemented with proteinase inhibitors) and TCA precipitation. 35S-incorporation levels were estimated by scintillation counting.

[3] = test system: PDK1; settings: hippocampal slices from Fmr1 KO mice; cited from earlier work
[4] = test system: PI3K (p110beta); test: In vitro PI3K assay with immunoprecipitated p110beta from treated cortical synaptoneurosomes (SNS); format: cell-based, mouse
Experimental: In vitro PI3K assays were performed as described previously (Ye et al., (2000) Cell 103:919-930) using p110beta antibody. In vitro extracellular signal-regulated kinase (ERK) activity assays were performed using the p44/42 MAP Kinase Assay kit from Cell Signaling Technology according to the manual. HEK293T cells were cultured in DMEM supplemented with 10% FBS. Fmr1-specific siRNA was transfected using LF2000 (Invitrogen) according to the manual. At 48 h after transfection, cells were scraped from the dish with PBS, divided into two equal parts for PI3K and ERK activity assays, respectively. […] Cortical synaptoneurosomes (SNS) were prepared as described previously (Muddashetty et al., (2007) J Neurosci 27:5338-5348.). SNS were split in two equal parts for PI3K and ERK activity assays. Cells and SNS were lysed in kinase assay buffers (for PI3K assay: 50 mM Tris-HCl, pH 7.4, 40 mM NaCl, 1 mM EDTA, 0.5% Triton X-100, 1.5 mM Na3VO4, 50 mM NaF, 10 mM sodium pyrophosphate, and 10 mM sodium β-glycerol phosphate, supplemented with proteinase inhibitors; for ERK activity assay: lysis buffer provided by Cell Signaling Technology). Lysates were cleared by centrifugation, and protein concentrations were determined by the Bradford method. For both kinase assays, the same amount of protein was used for wild-type (WT) and Fmr1 KO SNS or sifmr1 knockdown (KD) and sictr HEK293T cells, respectively. For measuring PI3K activity following various treatments, SNS were incubated for 10 min at 37° C. with either 100 μM (S)-3,5-dihydroxyphenylglycine (DHPG) or 10 μM 2-methyl-6-(phenylethynyl)-pyridine (MPEP) or for 1 h at 37° C. with tat-mGluR5-CT or tat-mGluR5-MUT peptides (5 μM) before lysis. For PI3K assays with cortical neurons, cells at 11d in vitro (DIV) were transfected with 10 μl of control adenovirus or adenovirus carrying short-hairpin PIKE-L (as described previously by Tang et al., (2008) Nat Cell Biol 10:698-706.) for 48 h. PI3K assays were performed with 300 μg of protein as described above. To confirm PIKE-L knockdown, 80 μg of protein was used for Western blot analyses using anti-PIKE-L antibody.

[5] = test system: p110beta; test: p110beta protein levels by Western blot in cortical SNS; format: cell-based, mouse; settings: DHPG 15 min, 50 μM
Experimental: SDS-PAGE and Western blots were performed as described previously (Muddashetty et al., 2007) and quantified using NIH ImageJ. Signal intensities of p110beta- and FMRP-specific bands were normalized to tubulin signal on the same blot. Signal intensities of phospho-proteins were normalized to total levels of the respective protein on the same blot. For this purpose, Western blots were stripped after detection with the phospho-specific antibodies using 100 mM β-mercaptoethanol and 2% SDS in 62.5 mM Tris-HCl, pH 6.8, at 50° C. for 30 min and, after extensive washing, detected with the respective antibody specific for the total protein.
as §1

[6] = test system: rat hippocampal neurons; settings: siRNA-mediated FMRP deficiency; cited from earlier work
[7] = test system: primary hippocampal neurons; test: Constitutive AMPAR internalization assay; format: cell-based, mouse; settings: WT neurons

SMILES: COc1ccc(C[C@H](N)C(=O)N[C@H]2[C@@H](O)[C@H](n3cnc4c(N(C)C)ncnc43)O[C@@H]2CO)cc1 [puromycin]
- association of p110beta mRNA with synaptoneurosomal polysomes ([1]; SNS, puromycin 2 mM, 30 min at 37° C.): sensitive to puromycin treatment

SMILES: N[C@@H](CCCP(=O)(O)O)C(=O)O [APV]
- translation rates (amino acid incorporation) ([2]; Fmr1 KO SNS): failed to reduce augmented translation in KO
- translation, genotype dependence of effect ([2]; WT and Fmr1 KO SNS, APV 50 μM): affected translation similarly across genotypes

SMILES: Cc1cc(C(=O)O)ccc1[C@H](N)C(=O)O [LY367385]
- translation rates ([35S] incorporation in 5 min) ([2]; Fmr1 KO SNS): reduced synaptic Fmr1 KO translation; also recorded: significantly decreased translation rates

SMILES: N[C@H](C(=O)O)c1cc(O)cc(O)c1 [DHPG, (S)-3,5-dihydroxyphenylglycine]
- DHPG-induced translational activation ([2]; Fmr1 KO SNS, no antagonist): occluded
- phosphorylation of PDK1 [3]: does not induce the phosphorylation of PDK1
- p110beta mRNA in puromycin-sensitive polysomal fractions (translation) ([1]; Fmr1 KO SNS, DHPG 15 min, 50 μM): occluded
- p110beta mRNA in puromycin-sensitive polysomal fractions ([1]; WT SNS, DHPG 15 min, 50 μM): induced a significant shift of p110beta mRNA into puromycin-sensitive fractions; also recorded: leads to a shift of p110beta mRNA into puromycin-sensitive fractions
- PI3K activity ([4]; Fmr1 KO SNS, DHPG 100 μM, 10 min): failed to activate PI3K; also recorded: significant reduction of PI3K activity; also recorded: decreased PI3K activity
- PI3K activity ([4]; WT SNS, DHPG 100 μM, 10 min): twofold increase
- p110beta protein expression ([5]; Fmr1 KO SNS): occluded; also recorded: does not increase protein expression
- p110beta protein levels ([5]; WT SNS): led to increased p110beta protein levels; also recorded: increases p110beta protein levels

SMILES: Cc1cccc(C#Cc2ccccc2)n1 [MPEP, 2-methyl-6-(phenylethynyl)-pyridine]
- levels of internalized AMPARs [6]: rescued increased levels of internalized AMPARs
- translation rates ([35S] incorporation in 5 min) ([2]; Fmr1 KO SNS): reduced synaptic Fmr1 KO translation; also recorded: significantly decreased translation rates
- PI3K activity ([4]; Fmr1 KO SNS, MPEP 10 μM, 10 min at 37° C.): significantly reduced PI3K function; also recorded: significantly reduces PI3K activity
- PI3K activity ([4]; WT SNS, MPEP 10 μM, 10 min at 37° C.): no significant effect

SMILES: O=c1cc(N2CCOCC2)oc2c(-c3ccccc3)cccc12 [LY294002, 2-(4-morpholinyl)-8-phenyl-1(4H)-benzopyran-4-one]
- translation rates (amino acid incorporation) ([2]; Fmr1 KO SNS): could specifically rescue the excessive synaptic translation; also recorded: significantly reduced amino acid incorporation rates
- constitutive endocytosis of AMPARs in distal dendrites (median) ([7]; LY294002 50 μM for 1 h): 35.3

SMILES: N#CC(=C(N)Sc1ccccc1N)C(C#N)=C(N)Sc1ccccc1N [U0126, 1,4-diamino-2,3-dicyano-1,4-bis(o-aminophenylmercapto)butadiene]
- DHPG-induced translational activation after antagonist pretreatment ([2]; Fmr1 KO SNS, DHPG 100 μM, 15 min): did not rescue DHPG-stimulated translation; also recorded: but not by ERK1/2 inhibition
- DHPG-induced translational activation after antagonist pretreatment ([2]; WT SNS, DHPG 15 min, 100 μM): abolished DHPG-induced translational increase; also recorded: abolish
- translation rates, genotype dependence of effect ([2]; WT and Fmr1 KO SNS, U0126 20 μM): reduced protein synthesis levels independently of genotype to the same extent; also recorded: did not show a genotype-specific effect on translation rates
- constitutive endocytosis of AMPARs in distal dendrites (median) ([7]; U0126 20 μM for 1 h): 43.8

SMILES: O=c1cc(N2CCNCC2)oc2c(-c3ccccc3)cccc12 [LY303511, 2-(1-piperazinyl)-8-phenyl-4H-1-benzopyran-4-one]
- translation rates ([2]; SNS, inactive analog of LY294002): did not show any effect; also recorded: did not alter translation rates
